Assay results reported in patent US9149523B2, “Compositions and methods for treating cancer and neurodegenerative diseases” (Yeda Research and Development Co. Ltd., priority 2010, dated 2015).

Biological target: T1, DAPk WT (Homo sapiens, UniProt P53355)
T1 construct: Plasmids encoding N-terminal Flag and hemaglutinin (HA)-tagged human full-length DAPk (Flag-DAPk and HA-DAPk); made in house; host or cells: HEK 293T cells, transient transfection; anti-FLAG M2 immunoprecipitation, elution with FLAG peptide
T1 sequence (P53355 whole entry): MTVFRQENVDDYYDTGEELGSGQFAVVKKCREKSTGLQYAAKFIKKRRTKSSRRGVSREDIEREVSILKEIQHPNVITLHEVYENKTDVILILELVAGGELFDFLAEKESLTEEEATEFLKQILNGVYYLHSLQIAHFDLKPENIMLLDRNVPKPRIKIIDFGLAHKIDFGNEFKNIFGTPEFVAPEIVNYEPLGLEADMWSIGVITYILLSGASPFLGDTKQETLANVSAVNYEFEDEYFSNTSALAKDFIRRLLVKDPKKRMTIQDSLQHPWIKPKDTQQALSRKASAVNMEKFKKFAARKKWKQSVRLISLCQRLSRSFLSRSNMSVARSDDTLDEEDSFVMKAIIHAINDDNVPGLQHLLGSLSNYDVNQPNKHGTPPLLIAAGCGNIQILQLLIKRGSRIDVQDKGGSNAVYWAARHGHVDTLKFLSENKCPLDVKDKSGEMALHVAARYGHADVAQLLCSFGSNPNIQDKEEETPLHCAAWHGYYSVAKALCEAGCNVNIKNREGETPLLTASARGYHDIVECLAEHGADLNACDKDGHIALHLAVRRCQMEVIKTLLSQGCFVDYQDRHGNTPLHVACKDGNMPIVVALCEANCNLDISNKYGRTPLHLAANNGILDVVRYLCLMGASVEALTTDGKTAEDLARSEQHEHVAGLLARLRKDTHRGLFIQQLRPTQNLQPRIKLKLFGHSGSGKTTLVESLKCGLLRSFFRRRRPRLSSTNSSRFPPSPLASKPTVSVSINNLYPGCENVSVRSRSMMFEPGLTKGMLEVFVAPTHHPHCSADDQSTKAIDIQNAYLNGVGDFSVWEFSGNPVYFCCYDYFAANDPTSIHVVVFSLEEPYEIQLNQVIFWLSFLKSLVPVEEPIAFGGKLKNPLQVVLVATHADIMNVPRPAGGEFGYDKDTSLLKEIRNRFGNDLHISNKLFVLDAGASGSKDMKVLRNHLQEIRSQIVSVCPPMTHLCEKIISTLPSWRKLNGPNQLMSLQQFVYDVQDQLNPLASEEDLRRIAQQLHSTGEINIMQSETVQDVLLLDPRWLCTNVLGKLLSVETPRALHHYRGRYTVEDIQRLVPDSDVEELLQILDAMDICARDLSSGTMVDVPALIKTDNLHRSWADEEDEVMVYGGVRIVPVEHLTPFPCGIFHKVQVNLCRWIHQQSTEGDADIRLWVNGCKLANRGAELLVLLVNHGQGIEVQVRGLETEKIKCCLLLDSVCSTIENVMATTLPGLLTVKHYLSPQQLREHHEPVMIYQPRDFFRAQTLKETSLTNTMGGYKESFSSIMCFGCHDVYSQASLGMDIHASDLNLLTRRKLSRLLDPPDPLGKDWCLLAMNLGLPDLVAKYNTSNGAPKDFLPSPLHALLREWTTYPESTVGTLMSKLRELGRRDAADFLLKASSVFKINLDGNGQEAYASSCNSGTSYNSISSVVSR
Assay: In vitro kinase assay (ELISA, hMLC Ser 19 phosphorylation)
Type: biochemical
Conditions: DAPk WT pre-incubated with GDP versus Gpp(NH)p (non-hydrolysable GTP analog); FIG. 4C
Description: Maxisorp™ multiwell polystyrene plates (Nunc, Langenselbold, Germany) were incubated at 4° C., overnight, with the indicated amounts of hMLC diluted in PBS. Plates were washed with PBST and blocked with 4% BSA (Sigma, City, State) diluted in PBS. The kinase reactions were then performed on the plate. Briefly, the wells were incubated with kinase buffer (50 mM Hepes, pH 7.5, 20 mM MgCl2, 0.1 mg/mL BSA, 50 mM β-glycerol phosphate, 50 μM ATP) containing 2.5 nM of the indicated enzyme, for 10 min. The reactions were stopped by addition of EDTA to final concentration of 25 mM. Plates were washed again with PBST and then incubated with rabbit anti MLC (Ser19) polyclonal antibody (Cell Signaling, Danvers, Mass.) at a 1:250 dilution in PBS. PBST wash was performed again and the plate incubated with HRP-conjugated goat anti rabbit IgG (Jackson ImmunoResearch, West Grove, Pa.). Detection was done with the HRP substrate ABTS. Where indicated the HRP read outs were plot using the Michaelis-Menten equation and the curves fit by the least squares method.
To determine the significance to DAPk's enzymatic activity of the ROC domain in general and of the GTP-binding in particular, in vitro kinase assays were performed. The assays were based on an ELISA format measuring phosphorylation of the DAPk substrate hMLC at Ser 19, using specific anti-phospho Ser19 antibodies. […]

DAPk catalytic activity: increased catalytic activity
SMILES: Nc1nc2c(ncn2[C@@H]2O[C@H](COP(=O)(O)OP(=O)(O)O)[C@@H](O)[C@H]2O)c(=O)[nH]1 [GDP]
